Tests used:
Test in all cases: Post-emergence glasshouse spray test, visual percentage phytotoxicity after 13 days
Type in all cases: in vivo
[1] = system: Abutilon threophrasti (ABUTH); conditions: for ABUTH percentage phytotoxicity: B1
Method in brief: (§1)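 Plants grown 8 days in glasshouse pots, then sprayed post-emergence at 500 l/Ha with compound, alone or in mixture, in IF50-based formulation diluted in 0.2% Genapol XO80. Phytotoxicity scored visually (0–100) after 13 days against untreated controls, 2–4 replicates in randomised blocks; expected mixture effects by Colby formula.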

[2] = system: Alopecurus myosuroides (ALOMY); conditions: for ALOMY percentage phytotoxicity: B1
Method in brief: as §1

[3] = system: Amaranthus retroflexus (AMARE); conditions: for AMARE percentage phytotoxicity: B1
Method in brief: as §1

[4] = system: Chenopodium album (CHEAL); conditions: for CHEAL percentage phytotoxicity: B1
Method in brief: as §1

[5] = system: Digitaria sanguinalis (DIGSA); conditions: for DIGSA percentage phytotoxicity: B1
Method in brief: as §1

[6] = system: Echinochloa crus-galli (ECHCG)
Method in brief: as §1

[7] = system: Ipomoea hederacea (IPOHE); conditions: for IPOHE percentage phytotoxicity: B1
Method in brief: as §1

Lolium perenne (LOLPE) = conditions: for LOLPE percentage phytotoxicity: B1
Method in brief: as §1

Setaria faberi (SETFA) = conditions: for SETFA percentage phytotoxicity: B1
Method in brief: as §1

Stellaria media (STEME) = conditions: for STEME percentage phytotoxicity: B1
Method in brief: as §1

FC(F)c1cc(-c2c(Cl)cccc2Oc2ncc(Cl)cn2)on1 [A-I]
ABUTH percentage phytotoxicity ([1]; 0.625 g/ha post-emergence): 15%
ABUTH percentage phytotoxicity ([1]; 1.25 g/ha post-emergence): 41%
ABUTH percentage phytotoxicity ([1]; 2.5 g/ha post-emergence): 49%
ABUTH percentage phytotoxicity ([1]; 5 g/ha post-emergence): 68%
ABUTH percentage phytotoxicity ([1]; 10 g/ha post-emergence): 68%
Observed phytotoxicity ABUTH ([1]; B2.1.7, 1.25 g/ha post-emergence): 8%
Observed phytotoxicity ABUTH ([1]; B2.1.7, 2.5 g/ha post-emergence): 25%
Observed phytotoxicity ABUTH ([1]; B2.4.6, 0.625 g/ha post-emergence): 15%
ALOMY percentage phytotoxicity ([2]; 0.625 g/ha post-emergence): 5%
ALOMY percentage phytotoxicity ([2]; 1.25 g/ha post-emergence): 11%
ALOMY percentage phytotoxicity ([2]; 2.5 g/ha post-emergence): 10%
ALOMY percentage phytotoxicity ([2]; 5 g/ha post-emergence): 43%
ALOMY percentage phytotoxicity ([2]; 10 g/ha post-emergence): 41%
Observed phytotoxicity ALOMY ([2]; B2.2.5, 5 g/ha post-emergence): 14%
Observed phytotoxicity ALOMY ([2]; B2.3.5, 1.25 g/ha post-emergence): 1%
Observed phytotoxicity ALOMY ([2]; B2.4.4, 10 g/ha post-emergence): 41%
AMARE percentage phytotoxicity ([3]; 0.625 g/ha post-emergence): 60%
AMARE percentage phytotoxicity ([3]; 1.25 g/ha post-emergence): 70%
AMARE percentage phytotoxicity ([3]; 2.5 g/ha post-emergence): 98%
AMARE percentage phytotoxicity ([3]; 5 g/ha post-emergence): 98%
AMARE percentage phytotoxicity ([3]; 10 g/ha post-emergence): 100%
Observed phytotoxicity AMARE ([3]; B2.1.5, 1.25 g/ha post-emergence): 55%
Observed phytotoxicity AMARE ([3]; B2.2.6, 0.625 g/ha post-emergence): 51%
Observed phytotoxicity AMARE ([3]; B2.2.6, 1.25 g/ha post-emergence): 76%
Observed phytotoxicity AMARE ([3]; B2.4.8, 1.25 g/ha post-emergence): 70%
CHEAL percentage phytotoxicity ([4]; 0.625 g/ha post-emergence): 48%
CHEAL percentage phytotoxicity ([4]; 1.25 g/ha post-emergence): 53%
CHEAL percentage phytotoxicity ([4]; 2.5 g/ha post-emergence): 79%
CHEAL percentage phytotoxicity ([4]; 5 g/ha post-emergence): 76%
CHEAL percentage phytotoxicity ([4]; 10 g/ha post-emergence): 78%
Observed phytotoxicity CHEAL ([4]; B2.1.6, 1.25 g/ha post-emergence): 45%
Observed phytotoxicity CHEAL ([4]; B2.4.7, 1.25 g/ha post-emergence): 53%
DIGSA percentage phytotoxicity ([5]; 0.625 g/ha post-emergence): 6%
DIGSA percentage phytotoxicity ([5]; 1.25 g/ha post-emergence): 25%
DIGSA percentage phytotoxicity ([5]; 2.5 g/ha post-emergence): 34%
DIGSA percentage phytotoxicity ([5]; 5 g/ha post-emergence): 63%
DIGSA percentage phytotoxicity ([5]; 10 g/ha post-emergence): 78%
Observed phytotoxicity DIGSA ([5]; B2.2.3, 5 g/ha post-emergence): 48%
Observed phytotoxicity DIGSA ([5]; B2.3.3, 0.625 g/ha post-emergence): 3%
Observed phytotoxicity DIGSA ([5]; B2.3.3, 1.25 g/ha post-emergence): 9%
Observed phytotoxicity DIGSA ([5]; B2.4.2, 2.5 g/ha post-emergence): 34%
Observed phytotoxicity DIGSA ([5]; B2.4.2, 5 g/ha post-emergence): 63%
Observed phytotoxicity DIGSA ([5]; B2.4.2, 10 g/ha post-emergence): 78%
Observed phytotoxicity DIGSA ([5]; B2.5.1, 2.5 g/ha post-emergence): 34%
Observed phytotoxicity DIGSA ([5]; B2.6.2, 0.625 g/ha post-emergence): 6%
Observed phytotoxicity DIGSA ([5]; B2.6.2, 2.5 g/ha post-emergence): 34%
Observed phytotoxicity DIGSA ([5]; B2.6.2, 10 g/ha post-emergence): 78%
Observed phytotoxicity ECHCG ([6]; B2.1.2, 0.625 g/ha post-emergence): 8%
Observed phytotoxicity ECHCG ([6]; B2.1.2, 5 g/ha post-emergence): 20%
Observed phytotoxicity ECHCG ([6]; B2.2.2, 0.625 g/ha post-emergence): 0%
Observed phytotoxicity ECHCG ([6]; B2.2.2, 1.25 g/ha post-emergence): 34%
Observed phytotoxicity ECHCG ([6]; B2.2.2, 5 g/ha post-emergence): 10%
Observed phytotoxicity ECHCG ([6]; B2.3.2, 0.625 g/ha post-emergence): 0%
Observed phytotoxicity ECHCG ([6]; B2.3.2, 1.25 g/ha post-emergence): 4%
Observed phytotoxicity ECHCG ([6]; B2.3.2, 5 g/ha post-emergence): 10%
IPOHE percentage phytotoxicity ([7]; 0.625 g/ha post-emergence): 32%
IPOHE percentage phytotoxicity ([7]; 1.25 g/ha post-emergence): 50%
IPOHE percentage phytotoxicity ([7]; 2.5 g/ha post-emergence): 80%
IPOHE percentage phytotoxicity ([7]; 5 g/ha post-emergence): 79%
IPOHE percentage phytotoxicity ([7]; 10 g/ha post-emergence): 60%
Observed phytotoxicity IPOHE ([7]; B2.3.6, 0.625 g/ha post-emergence): 24%
Observed phytotoxicity IPOHE ([7]; B2.4.5, 10 g/ha post-emergence): 60%
Observed phytotoxicity IPOHE ([7]; B2.6.4, 10 g/ha post-emergence): 60%
LOLPE percentage phytotoxicity (Lolium perenne (LOLPE); 0.625 g/ha post-emergence): 4%
LOLPE percentage phytotoxicity (Lolium perenne (LOLPE); 1.25 g/ha post-emergence): 5%
LOLPE percentage phytotoxicity (Lolium perenne (LOLPE); 2.5 g/ha post-emergence): 8%
LOLPE percentage phytotoxicity (Lolium perenne (LOLPE); 5 g/ha post-emergence): 43%
LOLPE percentage phytotoxicity (Lolium perenne (LOLPE); 10 g/ha post-emergence): 30%
Observed phytotoxicity LOLPE (Lolium perenne (LOLPE); B2.1.1, 0.625 g/ha post-emergence): 0%
Observed phytotoxicity LOLPE (Lolium perenne (LOLPE); B2.1.1, 1.25 g/ha post-emergence): 0%
Observed phytotoxicity LOLPE (Lolium perenne (LOLPE); B2.2.4, 1.25 g/ha post-emergence): 0%
Observed phytotoxicity LOLPE (Lolium perenne (LOLPE); B2.2.4, 2.5 g/ha post-emergence): 0%
Observed phytotoxicity LOLPE (Lolium perenne (LOLPE); B2.2.4, 5 g/ha post-emergence): 14%
Observed phytotoxicity LOLPE (Lolium perenne (LOLPE); B2.3.4, 1.25 g/ha post-emergence): 0%
Observed phytotoxicity LOLPE (Lolium perenne (LOLPE); B2.3.4, 2.5 g/ha post-emergence): 0%
Observed phytotoxicity LOLPE (Lolium perenne (LOLPE); B2.4.3, 10 g/ha post-emergence): 30%
Observed phytotoxicity LOLPE (Lolium perenne (LOLPE); B2.5.2, 5 g/ha post-emergence): 21%
Observed phytotoxicity LOLPE (Lolium perenne (LOLPE); B2.5.2, 10 g/ha post-emergence): 30%
Observed phytotoxicity LOLPE (Lolium perenne (LOLPE); B2.6.3, 10 g/ha post-emergence): 30%
SETFA percentage phytotoxicity (Setaria faberi (SETFA); 0.625 g/ha post-emergence): 7%
SETFA percentage phytotoxicity (Setaria faberi (SETFA); 1.25 g/ha post-emergence): 13%
SETFA percentage phytotoxicity (Setaria faberi (SETFA); 2.5 g/ha post-emergence): 29%
SETFA percentage phytotoxicity (Setaria faberi (SETFA); 5 g/ha post-emergence): 53%
SETFA percentage phytotoxicity (Setaria faberi (SETFA); 10 g/ha post-emergence): 65%
Observed phytotoxicity SETFA (Setaria faberi (SETFA); B2.1.3, 5 g/ha post-emergence): 40%
Observed phytotoxicity SETFA (Setaria faberi (SETFA); B2.2.1, 1.25 g/ha post-emergence): 8%
Observed phytotoxicity SETFA (Setaria faberi (SETFA); B2.2.1, 2.5 g/ha post-emergence): 14%
Observed phytotoxicity SETFA (Setaria faberi (SETFA); B2.2.1, 5 g/ha post-emergence): 51%
Observed phytotoxicity SETFA (Setaria faberi (SETFA); B2.3.1, 0.625 g/ha post-emergence): 3%
Observed phytotoxicity SETFA (Setaria faberi (SETFA); B2.3.1, 1.25 g/ha post-emergence): 8%
Observed phytotoxicity SETFA (Setaria faberi (SETFA); B2.3.1, 2.5 g/ha post-emergence): 14%
Observed phytotoxicity SETFA (Setaria faberi (SETFA); B2.4.1, 2.5 g/ha post-emergence): 29%
Observed phytotoxicity SETFA (Setaria faberi (SETFA); B2.6.1, 0.625 g/ha post-emergence): 7%
Observed phytotoxicity SETFA (Setaria faberi (SETFA); B2.6.1, 2.5 g/ha post-emergence): 29%
STEME percentage phytotoxicity (Stellaria media (STEME); 0.625 g/ha post-emergence): 44%
STEME percentage phytotoxicity (Stellaria media (STEME); 1.25 g/ha post-emergence): 60%
STEME percentage phytotoxicity (Stellaria media (STEME); 2.5 g/ha post-emergence): 88%
STEME percentage phytotoxicity (Stellaria media (STEME); 5 g/ha post-emergence): 99%
STEME percentage phytotoxicity (Stellaria media (STEME); 10 g/ha post-emergence): 98%
Observed phytotoxicity STEME (Stellaria media (STEME); B2.1.4, 1.25 g/ha post-emergence): 40%
Observed phytotoxicity STEME (Stellaria media (STEME); B2.3.7, 0.625 g/ha post-emergence): 29%
Observed phytotoxicity STEME (Stellaria media (STEME); B2.6.5, 0.625 g/ha post-emergence): 44%

Source: patent US20230389548A1, “MIXTURES OF PYRIMIDINES AS HERBICIDAL COMPOSITIONS” (SYNGENTA CROP PROTECTION AG, priority 2020, published 2023)
